Source: patent publication US9132140B2, “Boronic acid derivatives and therapeutic uses thereof” (Rempex Pharmaceuticals, Inc., priority 2013, dated 2015)

Experiments:
[1] = system: EC1064 (NDM-1, CMY-6, CTX-M-15); format: cell-based, Escherichia coli
Text: (§1) Several strains simultaneously expressing both class A and class B carbapenemases, which were constructed using conjugation, were also included in the panel.

EC1068 (VIM-1) = format: cell-based, Escherichia coli
Text: as §1

EA1019 (SHV-5, VIM-1) = format: cell-based, Enterobacter aerogenes
Text: as §1

P99/AmpC of ECL = P99/AmpC of ECL (Enterobacter cloacae, UniProt P05364); test: biochemical; settings: nitrocefin; read-out: Ki (P99/AmpC of ECL, NCF)
Method: (§2) Purified enzymes were mixed with various concentrations of inhibitors in reaction buffer and incubated for 10 min at room temperature. Nitrocefin was added and substrate cleavage profiles were recorded at 490 nm every 10 sec for 10 min.

CTX-M-14 = CTX-M-14 (Escherichia coli, UniProt Q9L5C7); test: Inhibition of purified beta-lactamase, nitrocefin cleavage; format: biochemical
Method: as §2

SHV-12 = SHV-12 (Klebsiella pneumoniae, UniProt P0AD64, E235K/G234S/L31Q); test: as above; format: biochemical; settings: read-out: Ki (SHV-12, NCF)
Method: as §2

OXA-48 = OXA-48 (Klebsiella pneumoniae, UniProt Q6XEC0); test: as above; format: biochemical; settings: read-out: Ki (OXA-48, NCF)
Method: as §2

KPM1107 (NDM, KPC) = format: cell-based, Klebsiella pneumoniae
Text: as §1

KP1098 (IMP-26 TEM SHV) = format: cell-based, Klebsiella pneumoniae
Text: as §1

KPM1108 (NDM, KPC) = format: cell-based, Klebsiella pneumoniae
Text: as §1

KPM1122 (NDM, VIM) = format: cell-based, Klebsiella pneumoniae
Text: as §1

[2] = system: KPM1346 (NDM-1 TEM SHV CTX-M-15 CMY); format: cell-based, Klebsiella pneumoniae
Text: as §1

KP1061 (KPC TEM SHV) = format: cell-based, Klebsiella pneumoniae
Text: as §1

KPM1097 (NDM, KPC) = format: cell-based, Klebsiella pneumoniae
Text: as §1

KP1097 (IMP-1 SHV) = format: cell-based, Klebsiella pneumoniae
Text: as §1

KPM1111 (NDM, KPC) = format: cell-based, Klebsiella pneumoniae
Text: as §1

KP1054 (VIM-1, SHV-11) = format: cell-based, Klebsiella pneumoniae
Text: as §1

CTX-M-14, sequence (Q9L5C7 entry or part of it): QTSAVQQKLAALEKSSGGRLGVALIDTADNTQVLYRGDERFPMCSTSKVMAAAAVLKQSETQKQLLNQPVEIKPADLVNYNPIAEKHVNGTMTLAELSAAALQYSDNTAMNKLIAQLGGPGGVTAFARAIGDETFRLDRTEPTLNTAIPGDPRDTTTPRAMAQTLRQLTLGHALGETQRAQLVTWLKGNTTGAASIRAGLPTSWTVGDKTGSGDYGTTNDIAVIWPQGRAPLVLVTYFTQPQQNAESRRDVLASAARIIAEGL
OXA-48, sequence (Q6XEC0 23-265, looked up): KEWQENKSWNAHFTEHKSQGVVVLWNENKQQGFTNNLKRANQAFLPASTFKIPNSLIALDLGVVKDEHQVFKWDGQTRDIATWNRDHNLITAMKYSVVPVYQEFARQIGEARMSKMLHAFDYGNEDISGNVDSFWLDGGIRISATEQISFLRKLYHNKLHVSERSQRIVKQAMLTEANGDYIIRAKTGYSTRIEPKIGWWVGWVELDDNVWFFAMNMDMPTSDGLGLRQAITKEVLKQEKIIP
SHV-12, sequence (P0AD64 22-286 L31Q/G234S/E235K): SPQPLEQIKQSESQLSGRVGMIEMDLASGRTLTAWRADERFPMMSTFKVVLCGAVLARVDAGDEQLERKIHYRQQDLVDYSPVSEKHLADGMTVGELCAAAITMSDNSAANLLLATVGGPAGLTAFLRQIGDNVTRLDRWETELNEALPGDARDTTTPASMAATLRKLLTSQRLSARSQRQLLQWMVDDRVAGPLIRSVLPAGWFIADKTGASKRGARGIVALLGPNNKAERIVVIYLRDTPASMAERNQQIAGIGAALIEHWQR
P99/AmpC of ECL, sequence (P05364 21-381): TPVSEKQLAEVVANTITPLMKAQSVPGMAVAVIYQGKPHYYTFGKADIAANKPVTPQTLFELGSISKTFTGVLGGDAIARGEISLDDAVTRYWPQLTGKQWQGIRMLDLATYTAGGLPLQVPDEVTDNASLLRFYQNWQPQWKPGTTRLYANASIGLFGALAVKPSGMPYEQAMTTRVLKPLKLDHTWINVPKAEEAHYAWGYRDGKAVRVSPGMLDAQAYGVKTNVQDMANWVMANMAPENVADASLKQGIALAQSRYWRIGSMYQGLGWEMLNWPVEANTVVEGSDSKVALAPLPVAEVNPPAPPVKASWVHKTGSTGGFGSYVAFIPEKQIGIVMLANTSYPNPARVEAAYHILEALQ

## Nn1cnnc1S[C@H]1Cc2cccc(C(=O)O)c2OB1O [Compound 14, (R)-3-(4-amino-4H-1,2,4-triazol-3-ylthio)-2-hydroxy-3,4-dihydro-2H-benzo[e][1,2]oxaborinine-8-carboxylic acid]
[1]
  Imipenem + 14 MIC: X (key: X: MIC of less than 1 μg/mL; Y: MIC of 1 μg/mL to 10 μg/mL; Z: MIC of greater than 10 μg/mL)
  Meropenem + 14 MIC: Y (key: X: MIC of less than 1 μg/mL; Y: MIC of 1 μg/mL to 10 μg/mL; Z: MIC of greater than 10 μg/mL)
EC1068 (VIM-1)
  Imipenem + 14 MIC: X (key: X: MIC of less than 1 μg/mL; Y: MIC of 1 μg/mL to 10 μg/mL; Z: MIC of greater than 10 μg/mL)
  Meropenem + 14 MIC: X (key: X: MIC of less than 1 μg/mL; Y: MIC of 1 μg/mL to 10 μg/mL; Z: MIC of greater than 10 μg/mL)
EA1019 (SHV-5, VIM-1)
  Imipenem + 14 MIC: Y (key: X: MIC of less than 1 μg/mL; Y: MIC of 1 μg/mL to 10 μg/mL; Z: MIC of greater than 10 μg/mL)
  Meropenem + 14 MIC: X (key: X: MIC of less than 1 μg/mL; Y: MIC of 1 μg/mL to 10 μg/mL; Z: MIC of greater than 10 μg/mL)
P99/AmpC of ECL
  Ki: < 100 nM
CTX-M-14
  Ki: < 100 nM
SHV-12
  Ki: < 100 nM
OXA-48
  Ki: < 100 nM
KPM1107 (NDM, KPC)
  Imipenem + 14 MIC: X (key: X: MIC of less than 1 μg/mL; Y: MIC of 1 μg/mL to 10 μg/mL; Z: MIC of greater than 10 μg/mL)
  Meropenem + 14 MIC: X (key: X: MIC of less than 1 μg/mL; Y: MIC of 1 μg/mL to 10 μg/mL; Z: MIC of greater than 10 μg/mL)
KP1098 (IMP-26 TEM SHV)
  Imipenem + 14 MIC: Y (key: X: MIC of less than 1 μg/mL; Y: MIC of 1 μg/mL to 10 μg/mL; Z: MIC of greater than 10 μg/mL)
  Meropenem + 14 MIC: Z (key: X: MIC of less than 1 μg/mL; Y: MIC of 1 μg/mL to 10 μg/mL; Z: MIC of greater than 10 μg/mL)
KPM1108 (NDM, KPC)
  Imipenem + 14 MIC: Y (key: X: MIC of less than 1 μg/mL; Y: MIC of 1 μg/mL to 10 μg/mL; Z: MIC of greater than 10 μg/mL)
  Meropenem + 14 MIC: Z (key: X: MIC of less than 1 μg/mL; Y: MIC of 1 μg/mL to 10 μg/mL; Z: MIC of greater than 10 μg/mL)
KPM1122 (NDM, VIM)
  Imipenem + 14 MIC: Y (key: X: MIC of less than 1 μg/mL; Y: MIC of 1 μg/mL to 10 μg/mL; Z: MIC of greater than 10 μg/mL)
  Meropenem + 14 MIC: Y (key: X: MIC of less than 1 μg/mL; Y: MIC of 1 μg/mL to 10 μg/mL; Z: MIC of greater than 10 μg/mL)
[2]
  Imipenem + 14 MIC: Y (key: X: MIC of less than 1 μg/mL; Y: MIC of 1 μg/mL to 10 μg/mL; Z: MIC of greater than 10 μg/mL)
  Meropenem + 14 MIC: Z (key: X: MIC of less than 1 μg/mL; Y: MIC of 1 μg/mL to 10 μg/mL; Z: MIC of greater than 10 μg/mL)
KP1061 (KPC TEM SHV)
  Imipenem + 14 MIC: X (key: X: MIC of less than 1 μg/mL; Y: MIC of 1 μg/mL to 10 μg/mL; Z: MIC of greater than 10 μg/mL)
  Meropenem + 14 MIC: X (key: X: MIC of less than 1 μg/mL; Y: MIC of 1 μg/mL to 10 μg/mL; Z: MIC of greater than 10 μg/mL)
KPM1097 (NDM, KPC)
  Imipenem + 14 MIC: X (key: X: MIC of less than 1 μg/mL; Y: MIC of 1 μg/mL to 10 μg/mL; Z: MIC of greater than 10 μg/mL)
  Meropenem + 14 MIC: X (key: X: MIC of less than 1 μg/mL; Y: MIC of 1 μg/mL to 10 μg/mL; Z: MIC of greater than 10 μg/mL)
KP1097 (IMP-1 SHV)
  Imipenem + 14 MIC: X (key: X: MIC of less than 1 μg/mL; Y: MIC of 1 μg/mL to 10 μg/mL; Z: MIC of greater than 10 μg/mL)
  Meropenem + 14 MIC: Y (key: X: MIC of less than 1 μg/mL; Y: MIC of 1 μg/mL to 10 μg/mL; Z: MIC of greater than 10 μg/mL)
KPM1111 (NDM, KPC)
  Imipenem + 14 MIC: X (key: X: MIC of less than 1 μg/mL; Y: MIC of 1 μg/mL to 10 μg/mL; Z: MIC of greater than 10 μg/mL)
  Meropenem + 14 MIC: X (key: X: MIC of less than 1 μg/mL; Y: MIC of 1 μg/mL to 10 μg/mL; Z: MIC of greater than 10 μg/mL)
KP1054 (VIM-1, SHV-11)
  Imipenem + 14 MIC: X (key: X: MIC of less than 1 μg/mL; Y: MIC of 1 μg/mL to 10 μg/mL; Z: MIC of greater than 10 μg/mL)
  Meropenem + 14 MIC: X (key: X: MIC of less than 1 μg/mL; Y: MIC of 1 μg/mL to 10 μg/mL; Z: MIC of greater than 10 μg/mL)
